The results in this text go back to US20250197399A1, “COMPOUNDS, COMPOSITIONS, AND METHODS” (Tenvie Therapeutics, Inc., priority 2022, published 2025).

For this assay, the system named is NLRP3. Nature of the assay: IL-1β secretion assay in PMA-differentiated, LPS/nigericin-stimulated THP-1 cells (ELISA). To be noted: 25 ng/mL LPS then nigericin, IL-1β in supernatant. It is filed as cell-based. As to the method:
Compounds as provided herein were tested in the following assay. Cell culture medium employed contained RPMI 1640 medium (89%), FBS (10%), Pen/Strep (1%), and 2-mercaptoethanol (0.05 mM). Freezing medium was made up of 90% FBS and 10% DMSO. THP-1 cells were removed from the liquid nitrogen and placed into a 37° C. water bath to thaw, until signs of ice dissipated. The cells were then added to 9 mL of warm cell culture medium and centrifuged for 5 minutes at 1000 rpm. The supernatant was discarded, and the cells were resuspended in new cell culture medium. THP-1 cells were then split and cultured in the cell culture medium, being passaged every 2-3 days with the cell density will be maintained between 5×10^5 and 1.5×10^6 viable cells/mL.
PMA was dissolved in DMSO to make a stock solution at 5 mg/ml and stored in 10 μl aliquots at −20° C. for single use. PMA is added to normal growth medium. LPS was diluted with 1 mL of water solution to provide a 1 mg/mL stock solution and stored in 15 μL aliquots at −20° C. for single use. Nigericin is diluted in ice cold 100% ethanol to 5 mg/ml (6.7 mM) and stored in 75 μL aliquots at −20° C. for single use. Serum-free media contains RPMI 1640 medium (99%), Pen/Strep (1%), and 2-mercaptoethanol (0.05 mM). The two control conditions used to qualify and normalize test compound dose-response curves were as follows: High Control=25 ng/mL LPS, […], 0.5% DMSO, Low Control=25 ng/mL, LPS, 0.5% DMSO.
THP-1 cells were diluted to provide a suspension at a concentration of 1.0×10^6 cells/mL with the total volume of suspension required to enable the desired number of assay plates. The growth media was supplemented with PMA (5 ng/mL final concentration) and the cells were incubated at 37° C. under a humidified atmosphere of 5% CO2 for 40 h.
All media was carefully aspirated from each culture flask. The cells were washed carefully with 1×DPBS. The cells were then briefly digested with trypsin LE for 5 minutes at 23° C. and immediately resuspended in cell growth media. After resuspension, the cells were centrifuged at 1000 rpm for 3 minutes and the supernatant was discarded. The cells were resuspended in DPBS and once again centrifuged at 1000 rpm for 5 minutes. The supernatant was discarded and the cell pellet was resuspended in serum-free media supplemented with LPS (25 ng/mL final concentration) to enable the distribution of 30K THP-1 cells within 45 μL of media into each well of 384-well PDL-coated plates. The 384-well plates were then incubated at 37° C. under a humidified atmosphere of 5% CO2 for 2 h. Following this period, test compounds were dispensed by Tecan across the desired concentration range with all wells normalized to a final 0.5% DMSO concentration. The plates were then then incubated at 37° C. under a humidified atmosphere of 5% CO2 for 1 h. Following this period, 5 μL of the 5 mg/mL nigericin stock solution was added to each of the appropriate wells and plates were centrifuged at 1000 rpm for 30 seconds. The plates were the immediately reintroduced to the incubator at 37° C. under a humidified atmosphere of 5% CO2 for 2 h. After this time, 35 μL/well of supernatant was collected and transferred into v-bottom plate and centrifuged at 1000 rpm for 1 minute. These supernatant aliquots were analyzed using an IL-Iβ detection kit as described below. If needed, the test samples could be snap frozen and stored at −80° C. until analyzed.
To prepare each ELISA plate, capture antibody (mAb Mt175) was diluted with PBS to a final concentration of […] and then 20 μL of this solution was added to each well of the ELISA plate. Each plate was allowed to incubate overnight at 4° C. The next day, the capture antibody solution was removed and discarded. Each ELISA plate was washed 4 times with PBST followed by the addition of 25 µL/well of blocking buffer (Licor-927-40010) supplemented with 0.1% Tween 20. Each ELISA plate was then allowed to incubate for 1 hour at 23° C. […]
Background: In an ELISA, binding on a coated surface is turned into a signal by an enzyme label.

Where [1] appears, read: Homo sapiens, THP-1, THP-1 cells, read-out: Activity (IC50 class).
Setting [2] is: THP-1 cells, read-out: Activity.
The mark [3] stands for this setting: THP-1 cells, read-out: Activity (IC50 class).
[4] abbreviates: Homo sapiens, THP-1, THP-1 cells, read-out: Activity.

pIC50: −log10 of the molar value. Where two headings read alike, the source gives them in different places.

Turning to `O=C(CN1C[C@]2(C[C@H]2F)c2cc(C(F)(F)F)ccc2C1=O)Nc1ncc2cn[nH]c2n1` (single isomer, unassigned) [Example 47, 2-[(2′s,4r)-2′-fluoro-1-oxo-6-(trifluoromethyl)spiro[3H-isoquinoline-4,1′-cyclopropane]-2-yl]-N-(1H-pyrazolo[3,4-d]pyrimidin-6-yl)acetamide], the pIC50 under setting [1] is greater than 6.00 and the pIC50 under setting [2] was 6.64.

Consider `O=C(CN1C[C@]2(C[C@H]2F)c2cc(C(F)(F)F)ccc2C1=O)Nc1ncc2cn[nH]c2n1` (single isomer, unassigned) [Example 48, 2-[(2′s,4r)-2′-fluoro-1-oxo-6-(trifluoromethyl)spiro[3H-isoquinoline-4,1′-cyclopropane]-2-yl]-N-(1H-pyrazolo[3,4-d]pyrimidin-6-yl)acetamide], for which the pIC50 was 7.62 under setting [2] and greater than 6.00 under setting [3].

For `O=C(CN1C[C@]2(C[C@H]2F)c2cc(C(F)(F)F)ccc2C1=O)Nc1nc2ccccn2n1` (single isomer, unassigned) [Example 49, 2-[(2′s,4r)-2′-fluoro-1-oxo-6-(trifluoromethyl)spiro[3H-isoquinoline-4,1′-cyclopropane]-2-yl]-N-([1,2,4]triazolo[1,5-a]pyridin-2-yl)acetamide], the pIC50 runs as follows: under setting [1], 5.00 to 6.00; under setting [2], 5.71.

As for `O=C(CN1C[C@]2(C[C@H]2F)c2cc(C(F)(F)F)ccc2C1=O)Nc1nc2ccccn2n1` (single isomer, unassigned) [Example 50, 2-[(2′s,4r)-2′-fluoro-1-oxo-6-(trifluoromethyl)spiro[3H-isoquinoline-4,1′-cyclopropane]-2-yl]-N-([1,2,4]triazolo[1,5-a]pyridin-2-yl)acetamide], the pIC50 under setting [2] was 6.74 and the pIC50 under setting [3] is greater than 6.00.

Turning to `C[C@]1(O)C[C@@H](NC(=O)CN2CC3(CC3(F)F)c3cc(C(F)(F)F)ccc3C2=O)C1` (single isomer, unassigned) [Example 52, 2-[1′,1′-difluoro-1-oxo-6-(trifluoromethyl)spiro[3H-isoquinoline-4,2′-cyclopropane]-2-yl]-N-(3-cis-hydroxy-3-methylcyclobutyl)acetamide], the pIC50 is 4.65 under setting [2] and less than 5.00 under setting [3].

With `C[C@]1(O)C[C@@H](NC(=O)CN2CC3(CC3(F)F)c3cc(C(F)(F)F)ccc3C2=O)C1` (single isomer, unassigned) [Example 53, 2-[1′,1′-difluoro-1-oxo-6-(trifluoromethyl)spiro[3H-isoquinoline-4,2′-cyclopropane]-2-yl]-N-(3-cis-hydroxy-3-methylcyclobutyl)acetamide], the pIC50 by setting is: under setting [2], 6.33; under setting [3], greater than 6.00.

`O=C(CN1CC2(CC2)c2cc(Br)ccc2C1=O)NC1CC(O)(C2CC2)C1` (single isomer, unassigned) [Example 56, 2-(6-bromo-1-oxospiro[3H-isoquinoline-4,1′-cyclopropane]-2-yl)-N-(3-cyclopropyl-3-hydroxycyclobutyl)acetamide]: the pIC50 is 6.44 under setting [2] and greater than 6.00 under setting [3].

With `O=C(CN1CC2(CC2)c2cc(Br)ccc2C1=O)NC1CC(O)(C2CC2)C1` (single isomer, unassigned) [Example 57, 2-(6-bromo-1-oxospiro[3H-isoquinoline-4,1′-cyclopropane]-2-yl)-N-(3-cyclopropyl-3-hydroxycyclobutyl)acetamide], the pIC50 was 4.95 under setting [2] and less than 5.00 under setting [3].

Consider `O=C(CN1CC2(CC2(F)F)c2cc(Br)ccc2C1=O)Nc1ncc2cn[nH]c2n1` (single isomer, unassigned) [Example 64, 2-(6-bromo-1′,1′-difluoro-1-oxospiro[3H-isoquinoline-4,2′-cyclopropane]-2-yl)-N-(1H-pyrazolo[3,4-d]pyrimidin-6-yl)acetamide], for which the pIC50 runs as follows: under setting [1], greater than 6.00; under setting [2], 8.10.

Take `O=C(CN1CC2(CC2(F)F)c2cc(Br)ccc2C1=O)Nc1ncc2cn[nH]c2n1` (single isomer, unassigned) [Example 65, 2-(6-bromo-1′,1′-difluoro-1-oxospiro[3H-isoquinoline-4,2′-cyclopropane]-2-yl)-N-(1H-pyrazolo[3,4-d]pyrimidin-6-yl)acetamide]: the pIC50 was 6.30 under setting [2] and greater than 6.00 under setting [3].

Regarding `O=C(CN1C[C@]2(C[C@H]2F)c2cc(C3(F)CC3)ccc2C1=O)Nc1ncc(C(F)(F)F)cn1` [Example 1, 2-[(2′R,4S)-2′-fluoro-6-(1-fluorocyclopropyl)-1-oxospiro[3H-isoquinoline-4,1′-cyclopropane]-2-yl]-N-(5-(trifluoromethyl)pyrimidin-2-yl)acetamide], the pIC50 runs as follows: under setting [4], 7.62; under setting [1], greater than 6.00.

Consider `Cc1cnc(NC(=O)CN2C[C@]3(C[C@H]3F)c3cc(C4(F)CC4)ccc3C2=O)nc1` [Example 2, 2-[(2′R,4S)-2′-fluoro-6-(1-fluorocyclopropyl)-1-oxospiro[3H-isoquinoline-4,1′-cyclopropane]-2-yl]-N-(5-methylpyrimidin-2-yl)acetamide], for which the pIC50 is 7.74 under setting [4] and greater than 6.00 under setting [1].

On to `N#Cc1cnc(NC(=O)CN2C[C@]3(C[C@H]3F)c3cc(C4(F)CC4)ccc3C2=O)nc1` [Example 3, 2-[(2′R,4S)-2′-fluoro-6-(1-fluorocyclopropyl)-1-oxospiro[3H-isoquinoline-4,1′-cyclopropane]-2-yl]-N-(5-cyanopyrimidin-2-yl)acetamide], for which the pIC50 under setting [4] was 7.77 and the pIC50 under setting [1] is greater than 6.00.

`C[C@]1(O)C[C@@H](NC(=O)CN2C[C@]3(C[C@H]3F)c3cc(C4(F)CC4)ccc3C2=O)C1` [Example 4, N-(3-cis-hydroxy-3-methylcyclobutyl)-2-[(2′R,4S)-2′-fluoro-6-(1-fluorocyclopropyl)-1-oxospiro[3H-isoquinoline-4,1′-cyclopropane]-2-yl]acetamide]: the pIC50 is 7.80 under setting [4] and greater than 6.00 under setting [1].

As to `C[C@]1(O)C[C@@H](NC(=O)CN2C[C@]3(C[C@H]3F)c3c(ccc(I)c3F)C2=O)C1` [Example 5, N-(3-cis-hydroxy-3-methylcyclobutyl)-2-[(2′s,4r)-2′,5-difluoro-6-iodo-1-oxospiro[3H-isoquinoline-4,1′-cyclopropane]-2-yl]acetamide], the pIC50 was 8.70 under setting [4] and greater than 6.00 under setting [1].

With `C[C@]1(O)C[C@@H](NC(=O)CN2C[C@]3(C[C@H]3F)c3c(ccc(C4CC4)c3F)C2=O)C1` [Example 6, N-(3-cis-hydroxy-3-methylcyclobutyl)-2-[(2′s,4r)-2′,5-difluoro-6-cyclopropyl-1-oxospiro[3H-isoquinoline-4,1′-cyclopropane]-2-yl]acetamide], the pIC50 runs as follows: under setting [4], 7.14; under setting [1], greater than 6.00.

Regarding `O=C(CN1CC(C(F)(F)F)c2cc(I)ccc2C1=O)Nc1ncc(Cl)cn1` (stereo not drawn) [Example 7, N-(5-chloropyrimidin-2-yl)-2-(6-iodo-1-oxo-4-(trifluoromethyl)-3,4-dihydroisoquinolin-2(1H)-yl)acetamide], the pIC50 was 7.77 under setting [4] and greater than 6.00 under setting [1].

As for `Cc1cnc(NC(=O)CN2CC(C(F)(F)F)c3cc(I)ccc3C2=O)nc1` (stereo not drawn) [Example 8, 2-(6-iodo-1-oxo-4-(trifluoromethyl)-3,4-dihydroisoquinolin-2(1H)-yl)-N-(5-methylpyrimidin-2-yl)acetamide], the pIC50 runs as follows: under setting [4], 7.36; under setting [1], greater than 6.00.
